Where a name gives a salt, the structure may show the parent alone. Read-outs that look alike come from different tables or passages of the source.
What was measured:
Type in all cases: cell-based
HIV-1 = assay: Anti-HIV activity: inhibition of cell pathological effect (CPE); settings: Human immunodeficiency virus 1; inhibition of cell pathological effect of HIV-1
Method: (§1) Per well of polystyrene plate (Immulon IB, Dynex Technology, Chantilly, Va.) was applied with HIV IG (a buffer of 0.085 M sodium carbonate and sodium bicarbonate, pH=9.6), stood at 4° C. over night, washed with PBS-T buffer (0.01 M PBS contains 0.05% Tween-20). The reaction was […] with PBS containing 1% skimmed milk (Bio-Rad Inc., Hercules, Calif.). A virus dissolved product was added to the wells, incubated at 37° C. for 1 hour, and washed. To the washed wells were added anti-P24 mAb (183-12H-5C), biotin labeled antimouse IgG1 (Santa Cruz Biotech., Santa Cruz, Calif.), SA-HRP and TMB successively. The reaction was terminated with 1N H2SO4. The absorption was detected at 450 nm by means of ELISA detector (Ultra 384, Tecan). Recombination protein p24 (US Biological, Swampscott, Mass.) was considered when the response curve of standard dosage was established. The inhibition activity IC50 (half inhibition concentration) values of p24 protein and (cell pathological effect) CPE were calculated by Calcusyn software provided by Sloan-Kettering Cancer Center (New York).
(§2) The inhibition activity (IC50) of pathological effect (CPE) and cytotoxicity (CC50) of p24 antigens and cells of HIV-1 of the compounds of part of examples were shown as follows: […]

p24 antigens of HIV-1 = assay: Anti-HIV activity: inhibition of p24 antigen (ELISA)
Method: as §1, §2

Cytotoxicity (XTT assay) = settings: half toxic concentration, incubation 4 days at 37° C.
Method: To 100 μl solution per compound on 96 wells cultivation plate at a certain concentration was added the same volume of cells (5×10^5/ml). Incubation was performed at 37° C. for 4 days. To the resultant were added 50 μl XTT solution (1 mg/ml) and 0.02 nM PMS. After the incubation was performed for 4 hours, the absorption was detected at 450 nm by means of ELISA detector. The CC50 (half toxic concentration) value was calculated by Calcusyn software provided by Sloan-Kettering Cancer Center (New York).
as §2

[1] = Human immunodeficiency virus 1, inhibition of HIV-1 p24 antigen, ELISA at 450 nm, read-out: IC50 (μM) p24

SMILES | IC50 (HIV-1) | IC50 (p24 antigens of HIV-1; [1]) | CC50 at 4 days (Cytotoxicity (XTT assay)) | IC50 (p24 antigens of HIV-1; Human immunodeficiency virus 1, read-out: IC50 (μM) p24)
c1ccc(C(c2ccc(CN3CCCNCc4cccc(c4)CNCCC3)cc2)c2ccc(CN3CCCNCc4cccc(c4)CNCCC3)cc2)cc1 [Example 25, 4,4′-bis{[3,7,11-triaza-dicyclo[11.3.1]heptadecan-1(16),13(17),14-trien-7-yl]-methyl}-1,1′1″-triphenylmethane hexahydrobromide dihydrate] | 1.87 ± 0.28 µM | 0.55 ± 0.09 µM | 32500 ± 3270 nM | –
c1ccc(C(c2cccc(CN3CCCNCCNCCCNCC3)c2)c2cccc(CN3CCCNCCNCCCNCC3)c2)nc1 [Example 6, 2-{[3,3′-bis[(1,4,8,11-tetraazacyclotetradecan-1-yl)-methyl]-1,1′yl]-diphenyl}methylenepyridyl octahydrobromide dihydrate] | 0.55 ± 0.16 µM | 0.16 ± 0.04 µM | 377000 ± 34400 nM | –
c1ccc(C(c2cccc(CN3CCCNCc4cccc(c4)CNCCC3)c2)c2cccc(CN3CCCNCc4cccc(c4)CNCCC3)c2)cc1 [Example 13, 3,3′-bis{[3,7,11-triaza-dicyclo[11.3.1]heptadecan-1(16),13(17),14-trien-7-yl]-methyl}-1,1′,1″-triphenylmethane hexahydrobromide dihydrate] | 1.56 ± 0.48 µM | – | 12400 ± 3690 nM | 0.64 ± 0.08 µM
Cc1ccc(C(c2cccc(CN3CCCNCCNCCCNCC3)c2)c2cccc(CN3CCCNCCNCCCNCC3)c2)cc1 [Example 2, 3,3′-bis[(1,4,8,11-tetraazacyclotetradecan-1-yl)-methyl]-4″-methyl-1,1′,1″-triphenylmethane octahydrobromide dihydrate] | 0.48 ± 0.31 µM | 0.17 ± 0.08 µM | 285000 ± 18800 nM | –
Brc1ccc(C(c2ccc(CN3CCCNCCNCCCNCC3)cc2)c2ccc(CN3CCCNCCNCCCNCC3)cc2)cc1 [Example 9, 4,4′-bis[(1,4,8,11-tetraazacyclotetradecan-1-yl)-methyl]-4″-bromo-1,1′,1″-triphenylmethane octahydrobromide dihydrate] | 1.75 ± 0.37 µM | 0.43 ± 0.07 µM | 65800 ± 7960 nM | –
Cc1ccc(C(c2ccc(CN3CCCNCc4cccc(n4)CNCCC3)cc2)c2ccc(CN3CCCNCc4cccc(n4)CNCCC3)cc2)cc1 [Example 31, 4,4′-bis{[3,7,11,17-tetraaza-dicyclo[11.3.1]heptadecan-1(16),13(17),14-trien-7-yl]-methyl}-4″-methyl-1,1′,1″-triphenylmethane hexahydrobromide dihydrate] | 1.07 ± 0.79 µM | 0.78 ± 0.18 µM | 39290 ± 80 nM | –
c1ccc(C(c2cccc(CN3CCCNCc4cccc(n4)CNCCC3)c2)c2cccc(CN3CCCNCc4cccc(n4)CNCCC3)c2)cc1 [Example 19, 3,3′-bis{[3,7,11,17-tetraaza-dicyclo[11.3.1]heptadecan-1(16),13(17),14-trien-7-yl]-methyl}-1,1′,1″-triphenyl methane hexahydrobromide dihydrate] | 0.79 ± 0.02 µM | 0.44 ± 0.04 µM | 14500 ± 1290 nM | –
Fc1ccc(C(c2ccc(CN3CCCNCCNCCCNCC3)cc2)c2ccc(CN3CCCNCCNCCCNCC3)cc2)cc1 [Example 10, 4,4′-bis[(1,4,8,11-tetraazacyclotetradecan-1-yl)-methyl]-4″-fluoro-1,1′,1″-triphenylmethane octahydrobromide dihydrate] | 1.22 ± 0.2 µM | 0.43 ± 0.11 µM | 91300 ± 8750 nM | –
Clc1cccc(C(c2ccc(CN3CCCNCCNCCCNCC3)cc2)c2ccc(CN3CCCNCCNCCCNCC3)cc2)c1 [Example 11, 4,4′-bis[(1,4,8,11-tetraazacyclotetradecan-1-yl)-methyl]-3″-chloro-1,1′,1″-triphenylmethane octahydrobromide dihydrate] | 1.48 ± 0.52 µM | 0.65 ± 0.2 µM | 67800 ± 13300 nM | –
Cc1ccc(C(c2ccc(CN3CCCNCCNCCCNCC3)cc2)c2ccc(CN3CCCNCCNCCCNCC3)cc2)cc1 [Example 8, 4,4′-bis[(1,4,8,11-tetraazacyclotetradecan-1-yl)-methyl]-4″-methyl-1,1′,1″-triphenylmethane octahydrobromide dihydrate] | 2.05 ± 0.58 µM | 0.97 ± 0.14 µM | 130000 ± 12400 nM | –
Brc1ccc(C(c2cccc(CN3CCCNCCNCCCNCC3)c2)c2cccc(CN3CCCNCCNCCCNCC3)c2)cc1 [Example 3, 3,3′-bis[(1,4,8,11-tetraazacyclotetradecan-1-yl)-methyl]-4″-bromo-1,1′,1″-triphenylmethane octahydrobromide dihydrate] | 0.08 ± 0.04 µM | 0.13 ± 0.01 µM | 161000 ± 4230 nM | –
Fc1ccc(C(c2cccc(CN3CCCNCCNCCCNCC3)c2)c2cccc(CN3CCCNCCNCCCNCC3)c2)cc1 [Example 4, 3,3′-bis[(1,4,8,11-tetraazacyclotetradecan-1-yl)-methyl]-4″-fluoro-1,1′,1″-triphenylmethane octahydrobromide dihydrate] | 0.42 ± 0.06 µM | 0.32 ± 0.02 µM | 367000 ± 54000 nM | –
Brc1ccc(C(c2ccc(CN3CCCNCc4cccc(n4)CNCCC3)cc2)c2ccc(CN3CCCNCc4cccc(n4)CNCCC3)cc2)cc1 [Example 32, 4,4′-bis{[3,7,11,17-tetraaza-dicyclo[11.3.1]heptadecan-1(16),13(17),14-trien-7-yl]-methyl}-4″-bromo-1,1′,1″-triphenylmethane hexahydrobromide dihydrate] | 0.8 ± 0.23 µM | 0.15 ± 0.02 µM | 12900 ± 310 nM | –
Clc1cccc(C(c2cccc(CN3CCCNCCNCCCNCC3)c2)c2cccc(CN3CCCNCCNCCCNCC3)c2)c1 [Example 5, 3,3′-bis[(1,4,8,11-tetraazacyclotetradecan-1-yl)-methyl]-3″-chloro-1,1′,1″-triphenylmethane octahydrobromide dihydrate] | 0.23 ± 0.01 µM | 0.35 ± 0.04 µM | 162000 ± 2690 nM | –
Clc1cccc(C(c2cccc(CN3CCCNCc4cccc(n4)CNCCC3)c2)c2cccc(CN3CCCNCc4cccc(n4)CNCCC3)c2)c1 [Example 23, 3,3′-bis{[3,7,11,17-tetraaza-dicyclo[11.3.1]heptadecan-1(16),13(17),14-trien-7-yl]-methyl}-3″-chloro-1,1′,1″-triphenylmethane hexahydrobromide dihydrate] | 1.18 ± 0.48 µM | 0.32 ± 0.05 µM | 15300 ± 560 nM | –
c1ccc(C(c2cccc(CN3CCCNCCNCCCNCC3)c2)c2cccc(CN3CCCNCCNCCCNCC3)c2)cc1 [Example 1, 3,3′-bis[(1,4,8,11-tetraazacyclotetradecan-1-yl)-methyl]-1,1′,1″-triphenylmethane octahydrobromide dihydrate] | 0.41 ± 0.11 µM | 0.13 ± 0.02 µM | 322000 ± 7130 nM | –
c1ccc(C(c2ccc(CN3CCCNCCNCCCNCC3)cc2)c2ccc(CN3CCCNCCNCCCNCC3)cc2)cc1 [Example 7, 4,4′-bis[(1,4,8,11-tetraazacyclotetradecan-1-yl)-methyl]-1,1′,1″-triphenylmethane octahydrobromide dihydrate] | 2.42 ± 0.4 µM | 0.98 ± 0.12 µM | 101000 ± 1050 nM | –

— patent US8420626B2, “Arene connected polyamine macrocyclic derivatives, preparation methods and pharmaceutical uses thereof” (Beijing Molecule Science and Technology Co., Ltd., priority 2007, dated 2013)
